What was measured:
A549 cells [1] = assay: Two-dose cell viability assay (CellTiter-Glo); details: A549, 20 μM and 500 nM, 72 h
Method: (§1) The cytotoxicity of fluorosulfation products 1F to 39F and their phenol precursors was assessed in cancer cell lines using a double-dose cell viability test. […] The difference between the cytotoxicity of a fluorosulfation product and that of its phenol precursor reflects the changes in compounds' anti-cancer activity after the SuFEx-based derivatization (FIG. 3, A). […] The corresponding phosphate of combretastatin A4 is a tumor vascular targeting agent, and the water-soluble prodrug of combretastatin A4.
(§2) 6C. Two-Dose Cell Viability Assay to Compare the Cytotoxicities of Fluorosulfation Products (1F to 39F) and Phenol Parents (1 to 39).
(§3) MCF-7 and A549 cancer cells were inoculated into 96-well plates in 100 μL medium at a plating density of 5,000 cells/well. After cell inoculation, the plates were incubated at 37° C. and 5% CO2. After 24 hours, all wells were refreshed with medium containing DMSO (0.2%, as vehicle control), phenols (20 μM or 500 nM) or in situ generated fluorosulfation products (20 μM or 500 nM). Then cancer cells were maintained at 37° C. and 5% CO2 for 72 hours before cell viability (Vcontrol, Vphenol and Vfluorosulfation product) were evaluated by CellTiter-Glo™ Assay following manual of protocol. […] The cytotoxicity difference between a fluorosulfation product and its phenol precursor is quantified as (Vphenol/Vcontrol×100%)−(Vfluorosulfation product/Vcontrol×100%).

MCF-7 cells [2] = assay: Two-dose cell viability assay (CellTiter-Glo); details: MCF-7, 500 nM, 72 h, in situ generated product
Method: as §1, §2, §3

A549 cells [3] = assay: Cancer cell growth inhibition assay; format: cell-based; details: Homo sapiens, A549, read-out: IC50 A549 Cells
Method: (§4) Experimental compounds were dissolved in DMSO at 500-fold of the desired final maximum test concentration. Then it was 10-fold serially diluted to other concentrations in DMSO. All aliquots were frozen prior to use.
(§5) Another same plate of cells was inoculated for the evaluation of time 0. […] And another plate of cancer cells was refreshed with medium containing either DMSO (0.2%, as control) or test compounds (1 or 1F) in seven different concentrations from 20 μM. After incubation for 72 hours, cell viabilities were evaluated by CellTiter-Glo™ assay to obtain Vcontrol and Vtest. The growth inhibition percentage is defined as (Vtest−V0)/(Vcontrol−V0)×100%. IC50 values were obtained from dose-response curves. All tests included 3 repeats.
(§6) Cancer cells were inoculated into a 96-well plate in 100 μL medium at a plating density of 3,000 cells/well. […] Then cells were incubated for 6 days with one change of medium containing test compounds on day 3, before cell viabilities were evaluated by CellTiter-Glo™ Assay to obtain Vcontrol and Vtest. […]
(§7) Another same plate of cells was inoculated for the evaluation of time 0. […] Then the viabilities of cancer cells for time 0 were evaluated by CellTiter-Glo™ assay to obtain V0. […] Then cells were incubation for 72 hours, before cell viabilities were evaluated by CellTiter-Glo™ assay to obtain Vcontrol and Vtest. […]

MCF-7 cells [4] = assay: Cancer cell growth inhibition assay; format: cell-based; details: Homo sapiens, MCF7, read-out: IC50 MCF-7 Cells
Method: as §4, §5, §6, §7

HT-29 cells = assay: Cancer cell growth inhibition assay; format: cell-based
Method: as §4, §5
as §5, with “Then the viabilities of cancer cells for time 0 were evaluated by CellTiter-Glo™ assay to obtain V0. Another” for “And another”, “(25” for “(1”, “25F)” for “1F)”, “7 to 9” for “seven”, “μM (2 μM for MCF-7 cells). Then cells were” for “μM. After”, “hours, before” for “hours,”

SKBR3 cells = assay: Cancer cell growth inhibition assay; format: cell-based; details: Homo sapiens, SK-BR-3, 72 h, read-out: IC50 SKBR3 Cells
Method: as §4, §5
as §5, with “Then the viabilities of cancer cells for time 0 were evaluated by CellTiter-Glo™ assay to obtain V0. Another” for “And another”, “(25” for “(1”, “25F)” for “1F)”, “7 to 9” for “seven”, “μM (2 μM for MCF-7 cells). Then cells were” for “μM. After”, “hours, before” for “hours,”

[5] = test system: microtubule network in HT-29 cells; assay: Immunofluorescence microscopy of HT-29 microtubule disruption; format: cell-based; details: HT-29, 24 h, anti-tubulin-FITC, confocal imaging; 25F 1 μM and 0.1 μM
Method: To assess the mechanism of fluorosulfate 25F, HT-29 cells were treated with 25F followed by staining with anti-tubulin-FITC antibody. […] In fact, glucuronidation of 25 on the phenol group by uridine 5-diphosphoglucuronosyl transferases (UGTs) has been previously identified as a mechanism of resistance evolved by HT-29 colon cancer cells and hepatocellular cancer cells.
After incubation at 37° C. for 24 hours, cells were treated with media containing DMSO (0.2%), 25 (1 μM, 0.1 μM) or 25F (1 μM, 0.1 μM, 0.01 μM) for 24 hours. Then cells were gently washed in PBS, fixed for 20 min with 4% paraformaldehyde in PBS and permeabilised in 0.5% Triton X-100™ surfactant. Following washes in PBS containing 0.1% Tween™ (PBST) surfactant, cells were blocked in 5% bovine serum albumin diluted in PBST. Then cells were incubated with mouse monoclonal anti-tublin-FITC antibody (DM1A) (1:100 in PBS) for 3 hours. After washing with PBST, cells were incubated with DAPI (1:2000) for 30 min and mounted in PBS for confocal analysis. Images were captured by Nikon™ spinning disk confocal microscopy. All images in each experiment were collected on the same day using identical parameters.

[6] = test system: A549, MCF-7, SKBR3 and HT-29 cells; assay: Cancer cell growth inhibition assay, comparison over the cell line panel; format: cell-based; details: 20 μM and 2 μM, dose-response studies
Method: as §4, §5
as §5, with “Then the viabilities of cancer cells for time 0 were evaluated by CellTiter-Glo™ assay to obtain V0. Another” for “And another”, “(25” for “(1”, “25F)” for “1F)”, “7 to 9” for “seven”, “μM (2 μM for MCF-7 cells). Then cells were” for “μM. After”, “hours, before” for “hours,”

## COc1ccc(/C=C\c2cc(OC)c(OC)c(OC)c2)cc1OS(=O)(=O)F [25F, (Z)-2-Methoxy-5-(3,4,5-trimethoxystyryl)phenyl sulfurofluoridate]
A549 cells [1]
  cytotoxicity compared with phenol precursor: significantly stronger
MCF-7 cells [2]
  increase of cytotoxicity relative to phenol precursor: 8%
A549 cells [3]
  IC50: 0.113 µM
MCF-7 cells [4]
  IC50: 0.0156 µM
HT-29 cells; Homo sapiens, HT-29, 72 h, read-out: IC50 HT-29 Cells
  IC50: 0.07 µM
HT-29 cells; drug resistant colon cancer cell line HT-29
  fold lower IC50 (increase in potency) versus compound 25 on HT-29: 70 fold
SKBR3 cells
  IC50: 0.0018 µM
[5]
  microtubule structure of treated cells: completely lost microtubule structure
[6]
  activity to inhibit cells at high concentrations compared with parent drug 25: stronger activities

From US11779548B2, “Arylfluorosulfate compounds and methods” (THE SCRIPPS RESEARCH INSTITUTE, priority 2014, dated 2023)
